Measured values: patent US20060234945A1, “Ophthalmic therapeutic composition” (Nihon Tenganyaku Kenkyusho Co., LTD., priority 2002, published 2006)

Assays:
[1] = test system: rabbit corneal wound model; experiment: Corneal wound healing promotion action 2 (in vivo), approx. 8 mm corneal epithelial abrasion; parameters: species or system Japanese white rabbit
Experimental: (3) Corneal Wound Healing Promotion Action 2 (In Vivo)
Using the same method as (2) above, corneal epithelial abrasion was induced in a Japanese white rabbit to produce a wound of approximately 8 mm in diameter in the cornea. The wound area was measured using the fluorescein-stained area as an index to examine the effects on corneal wound healing.
The eye drops containing the respective concentrations of the test compound were instilled (25 μl at a time) at 0, 6, 12, 18, 24, 30, 36, 42, 48, and 54 hours after induction corneal epithelial abrasion. In measuring the wound area, fluorescein staining was carried out and a photograph of the cornea was measured. The fluorescein-stained area of the photographed cornea was computed using an image analysis processing system.
(§1) In Tables 3 and 4, the respective values indicate the mean value±standard deviation (n=6). Statistical analysis was carried out using Dunnett's multiple comparison with respect to physiological saline with the area of the corneal wound portion immediately after (0 hours after) corneal epithelial abrasion being set to 100% (*p<0.05, ** p<0.01; vs. control).

[2] = test system: corneal epithelium; experiment: Action on corneal epithelium migration (in vitro), corneal organ culture system; assay type: cell-based, Japanese white rabbit; conditions: rabbit corneal blocks incubated 20 hours in Medium-199 with test compound; FIG. 1, 51.2-512.3 nM; vs control
Experimental: (1) Action on Corneal Epithelium Migration (In Vitro)
Using the cornea of male Japanese white rabbits, the effects on corneal epithelium migration were examined using the migrating length of the corneal epithelium in a corneal organ culture system as an index in accordance with the method of Nishida et al. (J. Cell. Biol., 97, pp. 1653-1657 (1983)).
Corneal blocks (three per group) were cut out from rabbit corneal tissue. These corneal blocks were incubated for 20 hours under the conditions of 37° C. and 5% CO2 in a culture medium (Medium-199) containing the test compound. After incubation, the corneal blocks were fixed in a mixed solution of ethanol and glacial acetic acid (volume ratio of 95:5), embedded in paraffin, and prepared as sections. After deparaffination, the sections were stained with hematoxylin-eosin and the migrating length of the epithelial cell layer was measured under a microscope.

[3] = test system: rabbit corneal wound model; experiment: Corneal wound healing promotion action 1 (in vivo), approx. 6 mm corneal epithelial abrasion; parameters: species or system Japanese white rabbit
Experimental: (2) Corneal Wound Healing Promotion Action 1 (In Vivo)
Using a male Japanese white rabbit, a wound of approximately 6 mm in diameter was produced in the cornea by inducing corneal epithelial abrasion in accordance with the method of Cintron et al. (Ophthalmic Res., 11, pp. 90-96 (1979)). The wound area was measured using the fluorescein-stained area as an index. The effects of the test compound on corneal wound healing were examined.
The eye drops containing the respective concentrations of the test compound were instilled (30 μl at a time) at 0, 3, 6, 9, 12, 18, 24, 27, 30, 33, 36, 42, and 48 hours after inducing corneal epithelial abrasion. In measuring the wound area, fluorescein staining was carried out and a photograph of the cornea was measured. The fluorescein-stained area of the photographed cornea was computed using an image analysis processing system.
as §1, with “1” for “3”, “2,” for “4,”, “PBS” for “physiological saline”

Substance: hyaluronic acid [reference compound]
- Healing ratio (%) ([1]; 0.3% eye drop, 0 hr (baseline)): 0%
- Healing ratio (%) ([1]; 0.3% eye drop, 12 hr): 13.98 ± 4.88%
- Healing ratio (%) ([1]; 0.3% eye drop, 18 hr): 28.45 ± 3.37%
- Healing ratio (%) ([1]; 0.3% eye drop, 24 hr): 60.78 ± 8.07%
- Healing ratio (%) ([1]; 0.3% eye drop, 30 hr): 60.78 ± 8.07%
- Healing ratio (%) ([1]; 0.3% eye drop, 36 hr): 71.62 ± 11.02%
- Healing ratio (%) ([1]; 0.3% eye drop, 48 hr): 90.19 ± 9.51%
- Healing ratio (%) ([1]; 0.3% eye drop, 54 hr): 95.35 ± 6.44%
- Healing ratio (%) ([1]; 0.3% eye drop, 72 hr): 99.92 ± 0.22%

Substance: Ac-Pro-His-Ser-Arg-Asn-NH2 (Ac-PHSRN-NH2) [PHSRN (SEQ ID NO: 1)]
- migration of corneal epithelium (migrating length of epithelial cell layer) [2]: significant promotion
- Healing ratio (%) ([3]; 2 μM eye drop, 0 hr (baseline)): 0%
- Healing ratio (%) ([3]; 2 μM eye drop, 6 hr): 9.66 ± 2.21%
- Healing ratio (%) ([3]; 2 μM eye drop, 12 hr): 26.71 ± 2.62%
- Healing ratio (%) ([3]; 2 μM eye drop, 24 hr): 61.91 ± 3.08%
- Healing ratio (%) ([3]; 2 μM eye drop, 36 hr): 88.08 ± 4.03%
- Healing ratio (%) ([3]; 2 μM eye drop, 48 hr): 99.14 ± 1.90%
- Healing ratio (%) ([3]; 20 μM eye drop, 0 hr (baseline)): 0%
- Healing ratio (%) ([3]; 20 μM eye drop, 6 hr): 10.73 ± 3.21%
- Healing ratio (%) ([3]; 20 μM eye drop, 12 hr): 28.01 ± 1.92%
- Healing ratio (%) ([3]; 20 μM eye drop, 24 hr): 64.07 ± 3.98%
- Healing ratio (%) ([3]; 20 μM eye drop, 36 hr): 89.09 ± 6.42%
- Healing ratio (%) ([3]; 20 μM eye drop, 48 hr): 99.15 ± 1.52%
- Healing ratio (%) ([3]; 200 μM eye drop, 0 hr (baseline)): 0%
- Healing ratio (%) ([3]; 200 μM eye drop, 6 hr): 11.06 ± 3.50%
- Healing ratio (%) ([3]; 200 μM eye drop, 12 hr): 28.69 ± 4.10%
- Healing ratio (%) ([3]; 200 μM eye drop, 24 hr): 67.70 ± 5.37%
- Healing ratio (%) ([3]; 200 μM eye drop, 36 hr): 94.97 ± 4.63%
- Healing ratio (%) ([3]; 200 μM eye drop, 48 hr): 100.00 ± 0.00%
- Healing ratio (%) ([3]; 2000 μM eye drop, 0 hr (baseline)): 0%
- Healing ratio (%) ([3]; 2000 μM eye drop, 6 hr): 11.15 ± 1.25%
- Healing ratio (%) ([3]; 2000 μM eye drop, 12 hr): 28.99 ± 2.65%
- Healing ratio (%) ([3]; 2000 μM eye drop, 24 hr): 69.49 ± 3.17%
- Healing ratio (%) ([3]; 2000 μM eye drop, 36 hr): 95.39 ± 3.06%
- Healing ratio (%) ([3]; 2000 μM eye drop, 48 hr): 100.00 ± 0.00%
- promotion of wound healing ([3]; instillation of eye drops, 6 mm wound, vs PBS): significant promotion of wound healing
- Healing ratio (%) ([1]; 0.04% eye drop, 0 hr (baseline)): 0%
- Healing ratio (%) ([1]; 0.04% eye drop, 12 hr): 13.57 ± 3.74%
- Healing ratio (%) ([1]; 0.04% eye drop, 18 hr): 29.45 ± 3.29%
- Healing ratio (%) ([1]; 0.04% eye drop, 24 hr): 58.71 ± 6.32%
- Healing ratio (%) ([1]; 0.04% eye drop, 30 hr): 58.71 ± 6.32%
- Healing ratio (%) ([1]; 0.04% eye drop, 36 hr): 70.29 ± 8.38%
- Healing ratio (%) ([1]; 0.04% eye drop, 48 hr): 88.27 ± 8.74%
- Healing ratio (%) ([1]; 0.04% eye drop, 54 hr): 94.24 ± 6.62%
- Healing ratio (%) ([1]; 0.04% eye drop, 72 hr): 98.93 ± 2.16%
- promotion of wound healing ([1]; instillation of eye drops, 8 mm wound, vs physiological saline): significant promotion of wound healing
